Experiments:
[1] = Behaviour of the solid on filtration under ambient conditions / ambient humidity; type: physicochemical
Description: Crude product (351 g) from the above example was dissolved in 1.5 L of methanol, then 625 mL of methanol was removed in vacuo. For the initial crystallization experiments, this solution was placed in a glass round-bottomed flask, and the side was scratched with a metal spatula. The solution was then stored at −20° C. for several weeks until a crystalline precipitate formed. […] For subsequent preparations, the methanol solution was seeded with 100 mg of crystalline nicotinamide riboside chloride, and the solution was allowed to stand at ambient temperature while the product crystallized over the course of several hours. Using a Buchner funnel filtration apparatus, the crystals were filtered and washed with 200 mL of ice-cold methanol. The product was dried on the filter, open to the air, for 1.5 h, then under high vacuum (<[…]) at ambient temperature for 18 h. The yield was 157 g (34%) of a light yellow solid. The product contained 0.9 molar equivalents of methanol by ^1H NMR integration (i.e., nicotinamide riboside chloride ●0.9 methanol crystals). This residual methanol could not be removed by additional drying at <40° C. […]

[2] = Thermal decomposition of the crystals on heating under vacuum, confirmed by 1H NMR in D2O; type: physicochemical
Description: The crystalline nature of this product was confirmed by optical microscopy using polarized light (FIG. 5). A 50 mg portion of this material was dried under high vacuum (<1.0 mm Hg) and at ambient temperature for 48 h. […] The material completely decomposed, without melting, within 17 min at 100° C. at <1 mm Hg. (Decomposition was confirmed by ^1H NMR spectral analysis in D2O solution after the heating period.) In contrast, a sample could be heated at 80° C. for 1 h and <1 mm Hg with <3% decomposition. ^1H NMR (400 MHz, D2O) δ 9.63 (s, 1H, H2), 9.31 (d, 1H, J=5.9 Hz, H4), 9.01 (dd, 1H, J=8.0 Hz, 1.0 Hz, H6), 8.32 (dd, 1H, J=8.0 Hz, 5.9 Hz, H5), 6.29 (d, 1H, J=3.9 Hz, H1′), 4.55 (t, 1H, J=3.9 Hz, H2′), 4.50 (m, 1H, H4′), 4.38 (t, 1H, J=3.9 Hz, H3′), 4.08 (dd, 1H, J=12, 3 Hz, H5′), 3.93 (dd, 1H, J=12, 3, Hz, H5′); ^13C NMR (75 MHz, D2O) δ 165.8 (C7), 145.6 (C6), 142.6 (C4), 140.4 (C2), 133.9 (C3), 128.4 (C5), 99.9 (C1′), 87.6 (C4′), 77.4 (C2′), 69.7 (C3′), 60.1 (C5′); IR (cm−1) 3299, 1700, 1398, 1080, 982, 887, 795 (see FIG. 8). XRPD (degrees) 14.2, 17.1, 20.5, 22.7, 23.8, 25.1, 26.8, 34.2 X-ray powder diffraction (XRPD) data are included as FIG. 6. The XRPD serves as a fingerprint for the crystalline form of nicotinamide riboside chloride with only trace residual solvents present.

[3] = tested on: Human primary dermal fibroblasts (HDFa); test: NAD measurement in dermal fibroblasts treated with NR chloride (ADPR cyclase enzymatic assay, absorbance 405 nm); type: cell-based; details: for NAD levels: FIG. 16
Description: Human primary dermal fibroblasts derived from adult human skins (HDFa, Life technologies, Grand Island, NY, Passage 2-4) were grown in Medium 106 (Life Technologies) supplemented with Low Serum Growth Supplement (LSGS) (Life Technologies) and seeded in 12-well plates with density at 2×10^5 cells per well and 1 ml of culture medium in each well.
Stock solution of NR chloride (MW: 322.742, GSK3002633B) was prepared freshly in water at 100 mM. Cells were treated with NR chloride at different concentrations as shown in […] for 6 and 24 hrs, washed twice with PBS containing 5 mM EDTA, and then subject to Nicotinamide adenine dinucleotide (NAD) measurement. In brief, acetonitrile (ACN) lysis buffer (Ammonium Acetate (50 mM) and 90% acetonitrile) was added to each well (200 μl/well) to lyse the cells at RT for 5-10 mins by gently rotating on a culture plate shaker at a low speed. Enzyme master mix (300 μM of 5-Amino-(3,4′-bipyridin)-6(1H)-one (Inamrinone) (Sigma-Aldrich), a substrate for ADP ribosyl cyclase (ADPR cyclase)) and 30 nM ADPR Cyclase (Sigma, St. Louis, Mont.), in 75 mM HEPES pH7 buffer (Life Technologies)) was added to the lysed cells (400 μl of enzyme master mix/well). Enzymatic reaction was incubated at RT for ˜30 min. At the end of incubation, the supernatant (200 μl) of the reaction solution from each well was transferred to each well of a 96-well plate and absorbance was read twice in the 96-well plate at 405 nm using a plate reader (Spectra Maxplus, Molecular Devices, Sunnyvale, Calif.). A mixture of enzyme master mix and ACN extraction solution at 2:1 ratio was used as a blank reference.
Isolated, chemically-pure NAD (Sigma) was used as a positive control. Other NAD assays are known in the art or otherwise publically available as a kit (see, e.g., Neubert, D., et al., Biochim. Biophys. Acta, 1964, 92, 610-12; Emanuelli, M., et al. J. Chromatog. B. 676, 13-18; and NAD/NADH Cell-Based Assay Kit by Cayman Chemical).

With `NC(=O)c1ccc[n+]([C@@H]2O[C@H](CO)[C@@H](O)[C@H]2O)c1.[Cl-]` [Example 3, 3-carbamoyl-1-((2R,3R,4S,5R)-3,4-dihydroxy-5-(hydroxymethyl)tetrahydrofuran-2-yl)pyridin-1-ium chloride] the “behaviour on the filter under ambient conditions” value [1] was “could be filtered under ambient conditions while remaining free-flowing”.

With `NC(=O)c1ccc[n+]([C@@H]2O[C@H](CO)[C@@H](O)[C@H]2O)c1.[Cl-]` [Example 4, nicotinamide riboside chloride] the “time to complete decomposition, without melting” value ([2]; 100° C. at <1 mm Hg) was ≤ 17 min, the “resistance to decomposition upon heating” value ([2]; compared with amorphous forms of nicotinamide riboside) was “far more resistant to decomposition upon heating than amorphous forms” and the decomposition ([2]; heated at 80° C. for 1 h and <1 mm Hg) was < 3%.

For `NC(=O)c1ccc[n+]([C@@H]2O[C@H](CO)[C@@H](O)[C@H]2O)c1.[Cl-]` [NR chloride, nicotinamide riboside chloride], the NAD levels ([3]; 6 hrs treatment) was “dose-dependently increased NAD levels”, the NAD levels ([3]; 24 hrs treatment) was “dose-dependently increased NAD levels” and the “intracellular NAD levels” value ([3]; FIG. 16, time not given) was “dose-dependently increases intracellular NAD levels”.
